Common to all, as to format: cell-based, human
The subject of one experiment is HAK cells. As to the kind of experiment: Culture passage with transient or constant VPA (qRT-PCR, morphology). The following applies: for cell morphology: culture passage. How it is done: Quantitative Reverse Transcription-PCR: Total RNA from kidney tissue cultured cells was isolated using the TRIZOL reagent (Invitrogen) according to the manufacturer's protocols. cDNA synthesis was carried out using Verso kit (Thermo scientific) with Random primers. Quantitative RT PCR was performed using an ABI7900HT sequence detection system (Perkin-Elmer/Applied Biosystems) in the presence of SYBR green (SYBR green PCR kit; Qiagen). Each analysis reaction was performed in duplicates or triplicates. GapDH was used as an endogenous control throughout all experimental analyses. Analysis was performed using the −ΔΔCt method, which determines fold changes in gene expression relative to a comparator sample. Maintaining re-induction of Six2/Osr1 in cultured human kidney cells is potentially important if such cells were to be propagated in vitro for the purpose of cell therapy. The present inventors therefore determined whether Six2 and Osr1 are maintained upon tissue culture passage of adult cells. Two treatment protocols were employed; the first, 24-hour exposure to 4 mM VPA and the second constant exposure to VPA.
A general note: Real-time PCR tracks product formation cycle by cycle.

Experiment [1] relates to adult kidney cells. The experiment can be described thus: Chromatin immunoprecipitation (ChIP) of Six2 and Wt1 promoters. The following applies: VPA 4 mM. How it is done:
Chromatin Immunoprecipitation Assay (ChIP): 10×10^6 cells adult kidney cells were grown. Untreated cells (control) or cells treated with VPA (4 mM) were cross-linked with 1% formaldehayde for 10 min at RT in culture medium. The cells were washed and harvested in cold phosphate-buffered saline (PBS) containing protease inhibitors (Complete mini, Roche Applied Science) and Pepstatin (Sigma). The cells were then washed with Buffer B (20 mM Hepes pH 7.6, 0.25% Triton-x, 10 mM EDTA, 0.5 mM EGTA) and Buffer C (50 mM Hepes pH 7.6, 150 mM NaCl, 1 mM EDTA, 0.5 mM EGTA) were resuspended in 300 μl of SDS lysis buffer [1% SDS, 10 mM EDTA and 50 mM Tris-HCl (pH 8.1)], and incubated on ice for 10 minutes. Lysates were sonicated with 8×10 second bursts and debris were removed by centrifugation for 10 minutes at 1000 g, at 4° C. Supernatants were diluted 10-fold in ChIP dilution buffer [0.01% SDS, 1.1% Triton X-100, 1.2 mM EDTA, 16.7 mM Tris-HCl (pH 8.1) and 167 mM NaCl] and pre-cleared by incubating with 40 μl of protein A+salmon sperm beads (Upstate Biotechnology) for 30 minutes at 4° C. Beads were pelleted for 1 minute at 1000 g at 4° C. A total of 10 μl of the supernatant was saved as input, and the rest was divided into equal aliquots and incubated by rocking with either control Ab (IgG) or with of specific antibodies; Trimethyl-Histon 3K27 antibody (Upstate Biotechnology), anti acetylatedhistone H4 (Upstate Biotechnology) over night at 4° C. A total of 60 μl of protein A+salmon sperm beads was added, and the samples were rocked for 2 hours at 4° C. The complexes on the beads were washed for 5 minutes at 4° C. with the following buffers: low salt [0.1% SDS, 1% Triton X-100, 2 mM EDTA, 20 mM Tris-HCl (pH 8.1) and 150 mM NaCl], high salt [0.1% SDS, 1% Triton X-100, 2 mM EDTA, 20 mM Tris-HCl (pH 8.1), 500 mM NaCl], LiCl wash [0.25 M LiCl, 1% Nonidet P-40, 1% deoxycholate, 1 mM EDTA and 10 mM Tris-HCl (pH 8.1)], and twice with TE [10 mM Tris-HCl and 1 mM EDTA (pH 8.0)]. Immune complexes were eluted twice with 200 μl of elution buffer [1% SDS and 0.1 M NaHCO3]for 15 minutes at room temperature. The samples were de-crosslinked by adding 16 μl of 5 M NaCl, 8 μl of 0.5 M EDTA (pH 6.5) and 16 μl of 1M Tris-HCl (pH 8.1) and incubated O.N at 65° C. Proteinase K (10 mg/ml) and the samples were incubated for additional 2 hours at 55° C. Immunoprecipitated DNA was recovered by phenol/chloroform extraction and ethanol precipitation and was analyzed by quantitative RT PCR.

Experiment [2] concerns adult kidney cells. The experiment can be described thus: Methylation immunoprecipitation (MeDIP) of Six2 and Wt1 promoters. How it is done: […] (MeDIP): 10 μg of sonicated genomic DNA (100-400 bp in length) was denatured, incubated 0/N at 4° C. with […] of anti-methyl cytosine antibody (Diagenode, Belgium), and subsequently with 60 μl of protein A fast flow beads (Upstate Biotechnologies) for 2 hours at 4° C. The beads were washed and incubated with digestion buffer (50 mM Tris-HCl pH 8.0, 10 mM EDTA, 0.5% SDS) and proteinase K for 3 hours and the DNA extracted by phenol-chloroform and EtOH precipitation. The samples were tested by quantitative RT PCR with the indicated primers at table 2. The sonicated DNA served as input.

Where [3] appears, read: P0 cells, transient 24-hour exposure to 4 mM VPA.
[4] abbreviates: later passages, transient 24-hour exposure to 4 mM VPA.

`CCCC(CCC)C(=O)O` [VPA, valproic acid]: in the experiment with HAK cells (setting [3]), the Osr1 gene levels result was “re-induced” and the Six2 gene levels result was “re-induced”. In the experiment with HAK cells (constant VPA exposure, P1-P3), the “Osr1 gene levels upon culture passage” value is “significant Six2 and Osr1 re-induction”; the “Six2 gene levels upon culture passage” value is “significant Six2 and Osr1 re-induction”. Also, the Six2 gene levels entry with HAK cells (constant VPA exposure, P3 cells) is given as “even further up-regulated”. Moreover, the cell morphology entry with HAK cells (constant VPA exposure) is on record as “epithelial-like cell morphology”. Also, in the experiment with HAK cells (setting [4]), the Osr1 gene levels result is reported as “remained similar to controls” and the Six2 gene levels entry is on record as “remained similar to controls”. The cell morphology result in the experiment with HAK cells (transient 24-hour VPA exposure) is listed as “fibroblastic morphology”. For the same compound, in the experiment with adult kidney cells [1], the “H3K4me at Six2 promoter regions” value is on record as “significant increases”, the “H3K4me elevation in the Wt1 promoter region” value is listed as “not”, the “H3K27me in the Wt1 promoter region” value was “modest elevation” and the “H3K27me levels at Six2 promoter regions” value is listed as “no change”. In addition, in the experiment with adult kidney cells [1], the “acetylated histones H4 at Six2 promoter regions (-92, -412, -541, -731, -955, -1157)” value is given as “significantly increased”. In the experiment with adult kidney cells [2] (VPA treatment), the “DNA methylation on Wt1 promoter” value is recorded as “minimally effected”. Further, the “DNA methylation at the Six2 promoter” value with adult kidney cells [2] (with or without VPA) is given as “DNA hypomethylation at the Six2 promoter loci regardless of VPA treatment”.

Source of the values: US9770469B2, “Methods of reprogramming renal cells” (Tel HaShomer Medical Research Infrastructure and Services …, priority 2009, dated 2017).
